Data from patent US20180235860A1, “USE OF DIETHANOLAMMONIUM DERIVATIVES AS SKIN MOISTURIZER” (L'OREAL, priority 2015, published 2018).

Test system: isolated stratum corneum (SC)
Assay: Moisturizing potential on isolated stratum corneum by measurement with a Corneometer (dielectric capacitance)
Conditions: for Mean DHCMi corr. active agent: vehicle-corrected; for Dielectric capacitance of the stratum corneum / moisturizing effect in comparison with glycerol at the same concentration: 5% by weight, result in words
Description: B): Evaluation of the Moisturizing Potential on Isolated Stratum Corneum by Measurement with a Corneometer
A test was performed to evaluate the moisturizing potential of the compounds of the invention formulated in an aqueous solution to an amount of 5% by weight relative to the total weight of the composition.
The technique makes it possible to measure the dielectric capacitance of stratum corneum (SC), which depends on the mean dielectric permittivity value of the tissue. The dielectric permittivity varies greatly with the amount of water contained in the SC.
The SC samples are conditioned at 75% relative humidity and at 25° C. before/during the measurements and the treatment. The capacitance measurement is performed using a Corneometer™ (Courage & Khazaka, Germany).
The test compound, compound 2 according to the invention or a moisturizing active agent such as glycerol, is dissolved in a water/n-propanol mixture (80/20) and the solution is deposited onto the SC at a rate of 10 μl/cm^2 followed by air-drying for a total duration of 1 hour 30 minutes.
Measurement is taken at T0, before the treatment, and a measurement Ttreat is taken after total drying of the treatment.
Each treatment is systematically compared with its control (vehicle) and with its T0.
Using at least two different batches of SC, four to five SC samples are measured per treatment.
The variation in the corneometer signal (HCM) after treatment is calculated first for each SC sample: DHCMi=HCMi(Ttreat)−HCMi(T0). The mean of the DHCMi(vehicle) variations is then calculated for the control samples (treated with the vehicle); this mean value is subtracted from all the DHCMi(active agent) variations to correct the systematic bias.
The following is measured for each sample i: • For the vehicle (control): DHCMi(veh)=HCMiveh(Ttreat)−HCMiveh(T0) • For the active agent: DHCMiactive agent=HCMiactive agent(Ttreat)−HCMiactive agent(T0)
To correct the systematic bias associated with the vehicle, the corrected value DHCMicorr. active agent is considered for the active agent according to: DHCMicorr. active agent−DHCMiactive agent−M
in which M corresponds to the mean of the DHCMi(veh) variations observed on the n control samples:
The mean DHCMi corr. active agent values, and also the associated standard deviations that were obtained, are reported in the table below for compound 2 tested at 5%, in comparison with glycerol at 5%: […]

[1] = 5% by weight in water/n-propanol mixture (80/20), 10 μl/cm2 on SC, 75% RH, 25° C., table for compound 2 vs glycerol
[2] = 5% by weight in water/n-propanol mixture, table for compounds 13 and 14 vs glycerol

C[N+](C)(CCO)CCO.[Cl-] [Compound 2]
Mean DHCMi corr. active agent [1]: 25.9
Dielectric capacitance of the stratum corneum / moisturizing effect in comparison with glycerol at the same concentration: much better

CC(O)C(=O)[O-].C[N+](C)(CCO)CCO [Compound 13]
Mean DHCMi corr. active agent [2]: 14
Dielectric capacitance of the stratum corneum / moisturizing effect in comparison with glycerol at the same concentration: better

OCC(O)CO [Glycerol, glycerol, reference compound]
Mean DHCMi corr. active agent [1]: 13.8
Mean DHCMi corr. active agent [2]: 11
